The subject of data set [1] is V79 cells. Nature of the data set: Cell survival by colony-forming test after photosensitizer and light. It counts as cell-based, Chinese hamster. The method, then:
(§1) Cells of the established line V79 (ATCC CCL-93) derived from Chinese hamster lung fibroblasts were used. The cells were grown in MEM medium containing 10% foetal calf serum (FCS from Gibco, Paisley, UK), 100 U ml^−1 penicillin and 100 μg ml^−1 streptomycin (Gibco) at 37° C. in an incubator flushed with 5% CO2 in air. The cells were subcultured twice a week.
The cells were inoculated in 25 cm^2 flasks (Nunclon, Denmark) containing MEM medium with 10% FCS and left at 37° C. for 4-5 hours for proper attachment to the substratum. Subsequently, the cells were washed 3 times with medium and exposed to 1 μg/ml TPPS2a or TPCS2a in serum-containing medium for 18 hours. The cells were subsequently washed 3 times with the sensitizer-free medium and incubated for 1 hour before light exposure. The cells were then exposed to red light (Phillips TL 20 W/09) filtered through a Cinemoid 35 filter or blue light (Appl. Photophysics, Nood. 3026, London). […]
Cell survival was measured by the colony-forming test as described by Berg et al. (Photochem. Photobiol. 53: 203-210, 1991). […] The cells were then fixed in ethanol, stained with methylene blue and the colonies counted. Inhibition of protein synthesis was assessed by [^3H]-leucine incorporation into proteins, measured at 24 hours post light exposure as described by Llorente et al. (FEBS Lett. 431: 200-204, 1998).

Data set [2] has as its system V79 cells. Nature of the data set: Inhibition of protein synthesis by [3H]-leucine incorporation (PCI of gelonin). It counts as cell-based, Chinese hamster. The procedure: as §1
The cells were inoculated in 25 cm^2 flasks (Nunclon, Denmark) containing MEM medium with 10% FCS and left at 37° C. for 4-5 hours for proper attachment to the substratum. Subsequently, the cells were washed 3 times with medium and exposed to 1 μg/ml TPPS2a or TPCS2a in serum-containing medium for 18 hours. The cells were subsequently washed 3 times with the sensitizer-free medium and incubated for 1 hour before light exposure. The cells were then exposed to red light (Phillips TL 20 W/09) filtered through a Cinemoid 35 filter or blue light (Appl. Photophysics, Nood. 3026, London). The fluence rates reaching the cells were 1.35 mW/cm^2 and 1.5 mW/cm^2 from the red and the blue lamps respectively.
Cell survival was measured by the colony-forming test as described by Berg et al. (Photochem. Photobiol. 53: 203-210, 1991). 1500 cells were inoculated in 25 cm^2 plastic tissue-culture flasks and treated with the photosensitizer and light as described above. After photochemical treatment the V79 cells were left for 5 days at 37° C. in serum-containing culture medium to allow for formation of countable colonies. The cells were then fixed in ethanol, stained with methylene blue and the colonies counted. Inhibition of protein synthesis was assessed by [^3H]-leucine incorporation into proteins, measured at 24 hours post light exposure as described by Llorente et al. (FEBS Lett. 431: 200-204, 1998).

Data set [3] can be described thus: Absorption spectra on photochemical reduction of TPPS2a. It counts as physicochemical. The following applies: benzene/TEA, peak shifted from 646 nm to 655 nm. The method, then:
A mixture of 950 μl benzene/triethylamine (TEA) (18:7), 32 μl dimethyl sulfoxide (DMSO) and 18 μl TPPS2a (from a solution of 1 mg/ml in DMSO) was prepared and saturated with nitrogen for 5 min in a 1 ml cuvette. The mixture was then exposed to light from a 500 W high pressure Xenon lamp fitted to a Bausch and Lomb grating monochromator. The cuvette was exposed to 545±15 nm light at 15 W/m^2. The fluence rate was monitored by means of a UDT 11 A photodetector with a 223 radiometric filter. The absorption spectra was measured regularly by a Perkin-Elmer Lambda 15 UV/VIS spectrophotometer. The light pass was 1 cm.
In accordance with the method described by Harel et al. (Photochem. Photobiol. 23: 337-341, 1976), TPPS2a was exposed to light in a solution of triethylamine (TEA) in benzene saturated with nitrogen. The solution was exposed to light of 545 nm in a cuvette as described above in “Materials and Methods”.

Data set [4] concerns V79 cells. The following applies: Berg et al. Cancer Res. 59: 1180-1183, 1999; cited from earlier work.

Entries after “also recorded” stand apart in the source; their conditions may differ.

On to “Tetraphenyl chlorin disulfonate [TPCS2a]”, for which the “sensitivity of treated cells to photoinactivation with blue light relative to TPPS2a” value in the data set on V79 cells [1] (18 hours incubation with sensitizer, 1 hour sensitizer-free medium, blue light, versus TPPS2a) is “equally sensitive; also recorded: equally efficient”. For the same substance, the “reduction induced by TPCS2a alone in the clonogenicity assay” value in the data set on V79 cells [1] (TPCS2a alone) is recorded as “not observed”. The “potentiation of the cytotoxicity of gelonin by TPCS2a and light” value in the data set with V79 cells [2] (1 μg/ml TPCS2a plus 1 μg/ml gelonin, red light, protein synthesis 24 hours after exposure to light) is listed as “strongly potentiate”. Further, the “reduction in protein synthesis induced by TPCS2a alone” value in the data set with V79 cells [2] (1 μg/ml TPCS2a, without gelonin) stood at 20%. In addition, the “increase in the extinction coefficient of band I of the Q-bands versus TPPS2a” value in data set [3] is reported as 5.8 fold.

On to “gelonin: type I ribosome-inactivating protein toxin, transfer molecule for PCI”, for which the “reduction of protein synthesis by gelonin alone” value with V79 cells [2] (1 μg/ml gelonin for 18 hours) is reported as “about 10%”. For the same substance, in the data set with V79 cells [4], the “toxicity of gelonin alone or in combination with light (literature)” value is reported as “low toxicity”.

The values are drawn from US8096419B2, “Compound” (PCI Biotech AS, priority 2001, dated 2012).
